From patent publication US7183324B2, “2,3,4-substituted cyclopentanones as therapeutic agents” (Allergan, Inc., priority 2004, dated 2007)

What was measured:
[1] = molecular target: T1, HEP4 (Homo sapiens, UniProt P35408); assay: Radioligand binding, EP4 receptor; conditions: [3H]PGE2 5 nM, HEK-293 membranes
T1 construct: expressed in transfected cells; host or cells: HEK-293
How it was run: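 Membranes from HEK-293 cells stably expressing human EP receptors, in TME buffer pH 7.4. Competition against 5 nM [3H]PGE2, 60 min at 25 °C, duplicate, at least three experiments; GF/B filtration. Non-specific binding with 10^−5 M unlabeled PGE2.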

[2] = molecular target: T2, HEP3D (Homo sapiens, UniProt P43115); assay: Radioligand binding, EP3 receptor; conditions: [3H]PGE2 5 nM
T2 sequence (P43115 1-374 isoform P43115-4): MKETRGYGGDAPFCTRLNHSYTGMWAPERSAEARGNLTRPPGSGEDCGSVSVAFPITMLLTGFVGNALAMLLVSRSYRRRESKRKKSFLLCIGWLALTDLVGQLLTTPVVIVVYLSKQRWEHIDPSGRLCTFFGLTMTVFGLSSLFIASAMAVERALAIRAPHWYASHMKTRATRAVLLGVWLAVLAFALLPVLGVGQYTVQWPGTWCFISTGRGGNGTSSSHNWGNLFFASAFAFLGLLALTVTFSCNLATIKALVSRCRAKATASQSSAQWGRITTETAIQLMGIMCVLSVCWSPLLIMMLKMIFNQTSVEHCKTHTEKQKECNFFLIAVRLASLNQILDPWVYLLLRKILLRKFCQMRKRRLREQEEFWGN
Protocol: (§1) HEK-293 cells stably expressing the human or feline FP receptor, or EP1, EP2, or EP4 receptors were washed with TME buffer, scraped from the bottom of the flasks, and homogenized for 30 sec using a Brinkman PT 10/35 polytron. TME buffer was added to achieve a final 40 ml volume in the centrifuge tubes (the composition of TME is 100 mM TRIS base, 20 mM MgCl2, […]; 10N HCl is added to achieve a pH of 7.4).
(§2) The cell homogenate was centrifuged at 19000 r.p.m. for 20 min at 4° C. using a Beckman Ti-60 rotor. The resultant pellet was resuspended in TME buffer to give a final 1 mg/ml protein concentration, as determined by Biorad assay. Radioligand binding competition assays vs. [^3H-]17-phenyl PGF2α (5 nM) were performed in a 100 μl volume for 60 min. Binding reactions were started by adding plasma membrane fraction. The reaction was terminated by the addition of 4 ml ice-cold TRIS-HCl buffer and rapid filtration through glass fiber GF/B filters using a Brandel cell harvester. The filters were washed 3 times with ice-cold buffer and oven dried for one hour. Non-specific binding was determined with 10 uM unlabeled 17-phenyl PGF2α.
(§3) [^3H-] PGE2 (5 nM; specific activity 180 Ci mmol) was used as the radioligand for EP receptors. Binding studies employing EP1, EP2, EP3, EP4 were performed in duplicate in at least three separate experiments. A 200 μl assay volume was used. Incubations were for 60 min at 25° C. and were terminated by the addition of 4 ml of ice-cold 50 mM TRIS-HCl, followed by rapid filtration through Whatman GF/B filters and three additional 4 ml washes in a cell harvester (Brandel). Non-specific binding determined with 10^−5M of unlabeled PGE2.

[3] = tested on: Beagle dogs; assay: Intraocular pressure in dogs (pneumatonometry); format: in vivo; conditions: dog, topical 25 μL drop, Conc. 0.1%, 5 day study
Protocol: (§4) • Intraocular Pressure (IOP) Intraocular pressure studies in dogs involved pneumatonometry performed in conscious, Beagle dogs of both sexes (10–15 kg). The animals remained conscious throughout the study and were gently restrained by hand. Drugs were administered topically to one eye as a 25 μL volume drop, the other eye received 25 μL vehicle (0.1% polysorbate 80:10 mM TRIS) as a control. Proparacaine (0.1%) was used for corneal anesthesia during tonometry. Intraocular pressure was determined just before drug administration and at 2, 4 and 6 hr thereafter on each day of the 5 day study. Drug was administered immediately after the first IOP reading. • An analogous procedure was carried out with cynomolgus monkeys with measurements at 2, 4, 6, and 24 hours after a single dose. • Pupil Diameter • Dog pupil diameter was measured using an optistick (a mm ruler which included half-circle references of standard widths (mm) for reference. Gently restraining the dog by hand, pupil diameter was determined by matching a half-circle to the pupil in normal room light. In dogs with very dark pupils a specialized penlight was used, but only very briefly to avoid pupil constriction. Pupil diameter was measured at the same time as IOP and hyperemia. • Ocular Surface Hyperemia • Ocular surface hyperemia was visually assessed and scored according to a system typically used clinically.

[4] = tested on: Beagle dogs; assay: Ocular surface hyperemia in dogs; format: in vivo; conditions: dog, topical, Conc. 0.1%; score: trace 0.5, mild 1, moderate 2, severe 3
Protocol: as §4
• Ocular surface hyperemia was evaluated at the same time points as intraocular pressure measurement. It should be noted that untreated dog eyes frequently have a pink/red tone. Thus, values of trace or even mild are not necessarily out of the normal range.

[5] = tested on: cynomolgus monkeys; assay: Intraocular pressure in cynomolgus monkeys; format: in vivo; conditions: monkey, topical single dose, Conc. 0.1%
Protocol: as §4

[6] = molecular target: T3, hEP4/Gqs5 (Homo sapiens, UniProt P35408); assay: FLIPR calcium signal, hEP4/Gqs5; format: cell-based; conditions: HEK-293 (EBNA) cells, read-out: FUNCTIONAL EC50 HEP4
T3 construct: expressed in transfected cells; host or cells: HEK-293 (EBNA)
T3 sequence (P35408 whole entry): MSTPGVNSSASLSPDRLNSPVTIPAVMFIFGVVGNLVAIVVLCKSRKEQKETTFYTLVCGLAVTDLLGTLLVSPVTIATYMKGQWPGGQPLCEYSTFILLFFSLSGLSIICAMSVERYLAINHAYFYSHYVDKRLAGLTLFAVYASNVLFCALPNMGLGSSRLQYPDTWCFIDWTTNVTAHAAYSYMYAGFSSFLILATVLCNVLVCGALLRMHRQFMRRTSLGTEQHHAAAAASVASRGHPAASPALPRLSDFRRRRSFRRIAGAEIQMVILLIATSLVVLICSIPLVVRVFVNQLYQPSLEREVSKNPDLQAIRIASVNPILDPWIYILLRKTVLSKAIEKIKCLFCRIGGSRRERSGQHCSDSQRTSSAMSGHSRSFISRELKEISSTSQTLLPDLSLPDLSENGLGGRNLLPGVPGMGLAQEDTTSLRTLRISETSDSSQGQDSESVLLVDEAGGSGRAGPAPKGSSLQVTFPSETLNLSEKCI
How it was run: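 HEK-293 (EBNA) cells stably expressing the recombinant human receptor (chimeric Gqs5 where indicated), Fluo-4 AM (2 μM) loaded 45 min, assayed in HBSS-HEPES pH 7.4 at 37 °C. Peak fluorescence (488 nm excitation) expressed relative to buffer and standard agonist controls; compounds tested at 10^−5 M or 10^−5–10^−11 M in duplicate, n≥3 plates.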

[7] = molecular target: T4, hDP/Gqs5 (Homo sapiens, UniProt Q13258); assay: FLIPR calcium signal, hDP/Gqs5; format: cell-based; conditions: HEK-293 (EBNA) cells, read-out: FUNCTIONAL EC50 HDP
T4 construct: expressed in transfected cells; host or cells: HEK-293 (EBNA)
T4 sequence (Q13258 1-359): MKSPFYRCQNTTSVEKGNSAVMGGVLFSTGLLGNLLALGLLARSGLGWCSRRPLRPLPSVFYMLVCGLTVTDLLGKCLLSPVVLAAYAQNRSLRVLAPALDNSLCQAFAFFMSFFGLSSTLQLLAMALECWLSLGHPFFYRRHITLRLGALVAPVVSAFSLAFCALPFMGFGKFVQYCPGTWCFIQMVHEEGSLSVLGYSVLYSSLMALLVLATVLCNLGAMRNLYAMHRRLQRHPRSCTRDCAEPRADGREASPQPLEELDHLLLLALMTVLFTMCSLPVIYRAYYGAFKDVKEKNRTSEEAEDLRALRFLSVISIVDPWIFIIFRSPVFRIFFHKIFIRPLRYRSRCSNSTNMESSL
Protocol: (§5) HEK-293 (EBNA) cells, stably expressing one type or subtype of recombinant human prostaglandin receptors (prostaglandin receptors expressed: hDP/Gqs5; hEP1; hEP2/Gqs5; hEP3A/Gqi5; hEP4/Gqs5; hFP; hIP; hTP), were cultured in 100 mm culture dishes in high-glucose DMEM medium containing 10% fetal bovine serum, 2 mM 1-glutamine, 250 μg/ml geneticin (G418) and 200 μg/ml hygromycin B as selection markers, and 100 units/ml penicillin G, 100 μg/ml streptomycin and 0.25 μg/ml amphotericin B. • (b) Calcium Signal Studies on the FLIPR™
(§6) Cells were seeded at a density of 5×10^4 cells per well in Biocoat® Poly-D-lysine-coated black-wall, clear-bottom 96-well plates (Becton-Dickinson) and allowed to attach overnight in an incubator at 37° C. Cells were then washed two times with HBSS-HEPES buffer (Hanks Balanced Salt Solution without bicarbonate and phenol red, 20 mM HEPES, pH 7.4) using a Denley Cellwash plate washer (Labsystems). […]
(§7) Cells were excited with an Argon laser at 488 nm, and emission was measured through a 510–570 nm bandwidth emission filter (FLIPR™, Molecular Devices, Sunnyvale, Calif.). […] The peak increase in fluorescence intensity was recorded for each well. […] The peak fluorescence change in each drug-containing well was then expressed relative to the controls. […]

[8] = molecular target: T5, hEP2/Gqs5 (Homo sapiens, UniProt P43116); assay: FLIPR calcium signal, hEP2/Gqs5; format: cell-based; conditions: HEK-293 (EBNA) cells, read-out: FUNCTIONAL EC50 HEP2
T5 construct: expressed in transfected cells; host or cells: HEK-293 (EBNA)
T5 sequence (P43116 whole entry): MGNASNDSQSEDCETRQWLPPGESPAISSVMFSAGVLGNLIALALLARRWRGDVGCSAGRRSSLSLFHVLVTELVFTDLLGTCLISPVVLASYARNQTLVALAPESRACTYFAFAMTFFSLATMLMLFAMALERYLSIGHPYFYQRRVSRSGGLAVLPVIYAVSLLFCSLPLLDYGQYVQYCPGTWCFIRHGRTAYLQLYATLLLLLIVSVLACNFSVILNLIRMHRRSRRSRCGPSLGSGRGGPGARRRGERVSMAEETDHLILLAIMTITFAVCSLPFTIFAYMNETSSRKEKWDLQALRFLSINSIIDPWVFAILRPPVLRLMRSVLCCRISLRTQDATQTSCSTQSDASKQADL
Protocol: as §5
(§8) Cells were seeded at a density of 5×10^4 cells per well in Biocoat® Poly-D-lysine-coated black-wall, clear-bottom 96-well plates (Becton-Dickinson) and allowed to attach overnight in an incubator at 37° C. Cells were then washed two times with HBSS-HEPES buffer (Hanks Balanced Salt Solution without bicarbonate and phenol red, 20 mM HEPES, pH 7.4) using a Denley Cellwash plate washer (Labsystems). After 45 minutes of dye-loading in the dark, using the calcium-sensitive dye Fluo-4 AM at a final concentration of 2 μM, plates were washed four times with HBSS-HEPES buffer to remove excess dye leaving 100 μl in each well. Plates were re-equilibrated to 37° C. for a few minutes.
(§9) Cells were excited with an Argon laser at 488 nm, and emission was measured through a 510–570 nm bandwidth emission filter (FLIPR™, Molecular Devices, Sunnyvale, Calif.). Drug solution was added in a 50 μl volume to each well to give the desired final concentration. The peak increase in fluorescence intensity was recorded for each well. On each plate, four wells each served as negative (HBSS-HEPES buffer) and positive controls (standard agonists: BW245C (hDP); PGE2 (hEP1; hEP2/Gqs5; hEP3A/Gqi5; hEP4/Gqs5); PGF2α (hFP); carbacyclin (hIP); U46619 (hTP), depending on receptor). The peak fluorescence change in each drug-containing well was then expressed relative to the controls.
Compounds were tested in a high-throughput (HTS) or concentration-response (CoRe) format. […]

[9] = molecular target: T6, HEP2 (Homo sapiens, UniProt P43116); assay: Radioligand binding, EP2 receptor; conditions: [3H]PGE2 5 nM, HEK-293 membranes
T6 construct: expressed in transfected cells; host or cells: HEK-293
T6 sequence (P43116 whole entry): as above
Protocol: as §1, §2, §3

[10] = molecular target: T7, hEP1 (Homo sapiens, UniProt P34995); assay: FLIPR calcium signal, hEP1; format: cell-based; conditions: HEK-293 (EBNA) cells, read-out: FUNCTIONAL EC50 HEP1
T7 construct: expressed in transfected cells; host or cells: HEK-293 (EBNA)
T7 sequence (P34995 1-402): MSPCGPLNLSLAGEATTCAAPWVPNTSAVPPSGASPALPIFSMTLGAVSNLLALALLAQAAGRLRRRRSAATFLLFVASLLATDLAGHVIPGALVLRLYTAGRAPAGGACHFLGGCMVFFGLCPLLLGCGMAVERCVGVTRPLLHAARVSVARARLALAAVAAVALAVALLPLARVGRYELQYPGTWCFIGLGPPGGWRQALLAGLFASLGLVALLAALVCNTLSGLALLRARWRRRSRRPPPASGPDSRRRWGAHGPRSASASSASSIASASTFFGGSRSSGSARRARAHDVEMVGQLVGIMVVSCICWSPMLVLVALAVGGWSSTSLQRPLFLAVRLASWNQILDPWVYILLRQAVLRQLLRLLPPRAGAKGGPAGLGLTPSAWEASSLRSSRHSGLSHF
Protocol: as §5, §6, §7

[11] = molecular target: T8, hEP3A/Gqi5 (Homo sapiens, UniProt P43115); assay: FLIPR calcium signal, hEP3A/Gqi5; format: cell-based; conditions: HEK-293 (EBNA) cells, read-out: FUNCTIONAL EC50 HEP3A
T8 construct: expressed in transfected cells; host or cells: HEK-293 (EBNA)
T8 sequence (P43115 1-390): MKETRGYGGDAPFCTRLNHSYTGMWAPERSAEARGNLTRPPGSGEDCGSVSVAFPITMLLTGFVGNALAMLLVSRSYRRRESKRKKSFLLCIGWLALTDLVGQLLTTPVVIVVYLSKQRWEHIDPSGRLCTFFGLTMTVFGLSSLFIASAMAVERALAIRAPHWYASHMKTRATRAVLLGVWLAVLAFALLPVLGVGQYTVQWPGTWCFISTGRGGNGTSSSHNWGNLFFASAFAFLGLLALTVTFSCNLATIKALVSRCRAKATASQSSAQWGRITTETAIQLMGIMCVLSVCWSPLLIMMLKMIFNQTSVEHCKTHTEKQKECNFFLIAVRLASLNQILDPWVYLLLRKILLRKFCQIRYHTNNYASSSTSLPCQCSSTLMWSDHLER
Protocol: as §5, §8, §9
Compounds were tested in a high-throughput (HTS) or concentration-response (CoRe) format. In the HTS format, forty-four compounds per plate were examined in duplicates at a concentration of 10^−5 M. To generate concentration-response curves, four compounds per plate were tested in duplicates in a concentration range between 10^−5 and 10^−11 M. The duplicate values were averaged. In either, HTS or CoRe format each compound was tested on at least 3 separate plates using cells from different passages to give an n≧3.

T1 sequence (P35408 whole entry): as the sequence (P35408 whole entry) above

O=C(O)CSCCCS[C@H]1C(=O)C[C@@H](CO)[C@@H]1/C=C/C(O)Cc1ccccc1 (single isomer, unassigned) [Compound 151]
IC50 [1]: 0.053 µM
IC50 [2]: > 10 µM
Max. ΔIOP [3]: −4.0 mm Hg
Max hyperemia [4]: 1.6
Max. ΔIOP [5]: −2.9 mm Hg
EC50 [6]: 0.059 µM

CCCCC[C@H](O)/C=C/[C@H]1CCC(=O)[C@@H]1SCCCSCC(=O)O [{3-[(1R,2R)-2-((E)-(S)-3-Hydroxy-oct-1-enyl)-5-oxo-cyclopentylsulfanyl]-propylsulfanyl}-acetic acid]
EC50 [7]: > 10 µM
IC50 [1]: 0.02 µM
EC50 [8]: 1.22 µM
IC50 [9]: 2.2 µM
EC50 [10]: > 10 µM
EC50 [6]: 0.0016 µM
EC50 [11]: 0.016 µM
